Patent US10765680B2, “Combination of a MCL-1 inhibitor and a taxane compound, uses and pharmaceutical compositions thereof” (priority 2017, dated 2020)

Key:
Assay type in all cases: cell-based
Conditions in all cases: single agent, read-out: Abs IC50
[1] = test system: BT-474 breast cancer cell line; assay: 72 hours CellTiter-Glo proliferation assay, BT-474
Procedure: (§1) Compounds were dissolved in 100% DMSO (Sigma, Catalog # D2438-50 ML) at a stock concentration of 10 mM and stored at −20° C. until use. Compounds were arrayed in 2 ml deep 96-well plates (Greiner bio-one, catalog number 780271) serially diluted 3-fold. Compound 1 was used over a concentration range of 0.0-10.0 μM. Paclitaxel was used over a concentration range of 0.0-1.0 μM in breast cancer cells and 0.0-2.0 μM range in lung cancer cells.
(§2) All cell lines were purchased from the American Type Culture Collection and cultured according to vendor recommendations. […] All cell lines were determined to be free of mycoplasma contamination by a PCR detection assay performed at Idexx Radil (Columbia, Mo., USA) and authenticated by SNP analysis. […] Cells were expanded to T-75 flasks and assessed for viability using a Beckman-Coulter ViCell counter prior to plating. […]
(§3) Cell proliferation was measured in 72 hours CellTiter-Glo™ (CTG) assays and all results shown are the result of at least triplicate measurements. […] After 72 hours of compound treatment the effects of compounds on cell proliferation was determined using the CellTiter-Glo™ Luminescent Cell Viability Assay (Promega, Catalog # G7573). This is a homogeneous method to determine the number of viable cells in culture based on quantitation of the ATP present, which signals the presence of metabolically active cells. […]

[2] = test system: Cal-148 breast cancer cell line; assay: 72 hours CellTiter-Glo proliferation assay, Cal-148
Procedure: as §1, §2, §3

[3] = test system: HCC1500 breast cancer cell line; assay: 72 hours CellTiter-Glo proliferation assay, HCC1500
Procedure: as §1, §2, §3

[4] = test system: HCC1954 breast cancer cell line; assay: 72 hours CellTiter-Glo proliferation assay, HCC1954
Procedure: as §1, §2, §3

[5] = test system: HCC38 breast cancer cell line; assay: 72 hours CellTiter-Glo proliferation assay, HCC38
Procedure: as §1, §2, §3

[6] = test system: HCC70 breast cancer cell line; assay: 72 hours CellTiter-Glo proliferation assay, HCC70
Procedure: as §1, §2, §3

[7] = test system: A549 lung cancer cell line; assay: 72 hours CellTiter-Glo proliferation assay, A549
Procedure: as §1, §2, §3

For `COc1ccccc1-c1nccc(COc2ccccc2C[C@@H](Oc2ncnc3sc(-c4ccc(F)cc4)c(-c4ccc(OCCN5CCN(C)CC5)c(Cl)c4C)c23)C(=O)O)n1` [Compound 1, (2R)-2-{[(5Sa)-5-{3-chloro-2-methyl-4-[2-(4-methylpiperazin-1-yl)ethoxy]phenyl}-6-(4-fluorophenyl)thieno[2,3-d]pyrimidin-4-yl]oxy}-3-(2-{[2-(2-methoxyphenyl)pyrimidin-4-yl]methoxy}phenyl)propanoic acid], the IC50 [1] was 1260 nM, the IC50 [2] was 1330 nM and the IC50 [3] was 258 nM. The IC50 [4] was 158 nM, the IC50 [5] was 3380 nM and the IC50 [6] was 704 nM. For the same compound, the IC50 [7] was > 10000 nM.
